From patent publication US20160002247A1, “8-SUBSTITUTED IMIDAZOPYRIMIDINONE DERIVATIVE HAVING AUTOTAXIN INHIBITORY ACTIVITY” (THE UNIVERSITY OF TOKYO, priority 2013, published 2016)

target: T1, Human autotaxin enzyme (Homo sapiens, UniProt Q13822); test: Evaluation of autotaxin inhibitor, Method C (Test Example 3): 18:0 Lyso PC, choline assay, Resorufin fluorescence; format: biochemical; settings: Assay Method C (Test Example 3), human autotaxin, 18:0 Lyso PC substrate; read-out: Inhibitory Activity (autotaxin enzyme inhibitory activity, IC50 class)
T1 construct: purchased R&D System
Method in brief: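 Choline-coupled fluorescence readout (20 min, resorufin at 531/598 nm) followed a 2 h room-temperature reaction of human autotaxin with 18:0 Lyso PC substrate (added as 200 μM solution) in pH 7.5 Tris buffer containing MgCl2 and Triton X-100. Percent inhibition scaled to no-compound (0%) and no-enzyme (100%) wells and plotted versus concentration.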

Row | IC50 [nM] | Compound
1 | 10 to 100 | CCCCCn1c(N2CCC[C@H]2C(=O)N2CCC[C@@H](C(=O)OCC)C2)cc(=O)n2cc(-c3ccc(Cl)cc3)nc12 [Compound 688]
2 | 100 to 1000 | CCCCCn1c(N2CCC[C@H]2C(=O)NCCCCCN(C)C)cc(=O)n2cc(-c3ccc(Cl)cc3)nc12 [Compound 653]
3 | 10 to 100 | CCCCCn1c(N2CCCC2c2ccccc2)cc(=O)n2cc(-c3ccc(Cl)cc3)nc12 (centres unmarked) [Compound 306]
4 | 10 to 100 | CCCCCn1c(OC2CNC2)cc(=O)n2cc(-c3ccc(Cl)cc3)nc12 [Compound 537]
5 | 100 to 1000 | CCCCCn1c(N2CCCC[C@@H]2C(=O)O)cc(=O)n2cc(-c3ccc(Cl)cc3)nc12 [Compound 612]
6 | 100 to 1000 | CCCCCn1c(NCCC(=O)NCC(=O)O)cc(=O)n2cc(-c3ccc(Cl)cc3)nc12 [Compound 630]
7 | 10 to 100 | CCCCCn1c(N2CCC[C@H]2C(=O)NC2CCNC2=O)cc(=O)n2cc(-c3ccc(Cl)cc3)nc12 (some centres unmarked) [Compound 700]
8 | 10 to 100 | CCCCCn1c(OCc2ccc(C(=O)O)cc2)cc(=O)n2cc(-c3ccc(Cl)cc3)nc12 [Compound 194]
9 | 10 to 100 | N#CCCCCn1c(-c2ccc(C(=O)NCCN3CCOCC3)cc2)cc(=O)n2cc(-c3ccc(C(F)(F)F)cc3)nc12 [Compound 376]
10 | 10 to 100 | O=C(NCCN1CCOCC1)c1ccc(-c2cc(=O)n3cc(-c4ccc(Cl)cc4)nc3n2CCCC(F)(F)F)cc1 [Compound 383]
11 | 100 to 1000 | CCCCCn1c(N2CCCC(CC(=O)OCC)C2)cc(=O)n2cc(-c3ccc(Cl)cc3)nc12 (centres unmarked) [Compound 315]
12 | < 10 | CCCCCn1c(N2C[C@H](O)C[C@H]2C(=O)NCCC(=O)O)cc(=O)n2cc(-c3ccc(Cl)cc3)nc12 [Compound 581]
13 | < 10 | CCCCCn1c(N2CCC[C@H]2C(=O)NC(C)(C)CC(=O)O)cc(=O)n2cc(-c3ccc(Cl)cc3)nc12 [Compound 350]
14 | < 10 | CCCCCn1c(N2CCC[C@H]2C(=O)N[C@@H](Cc2ccccc2)C(=O)O)cc(=O)n2cc(-c3ccc(Cl)cc3)nc12 [Compound 740]
15 | > 1000 | CCCCCn1c(N2CCCC(c3ccccc3)C2)cc(=O)n2cc(-c3ccc(Cl)cc3)nc12 (centres unmarked) [Compound 305]
16 | < 10 | CCCCCn1c(N2CCCC[C@H]2C(=O)NCCC(=O)O)cc(=O)n2cc(-c3ccc(Cl)cc3)nc12 [Compound 621]
17 | 10 to 100 | CCCCCn1c(N2CCN(C(=O)OC(C)(C)C)C[C@@H]2C(=O)NCCC(=O)O)cc(=O)n2cc(-c3ccc(Cl)cc3)nc12 [Compound 619]
18 | 10 to 100 | CCCCCn1c(NCc2ccc(C(=O)O)cc2)cc(=O)n2cc(-c3ccc(Cl)cc3)nc12 [Compound 192]
19 | 100 to 1000 | CCCCCn1c(-c2cnc(OC)c(Cl)c2)cc(=O)n2cc(-c3ccc(Cl)cc3)nc12 [Compound 458]
20 | 10 to 100 | CCCCCn1c(-c2ccc(C(=O)NCCN(C)C)cc2)cc(=O)n2cc(-c3ccc(Cl)cc3)nc12 [Compound 413]

Row | IC50 [nM] | Compound
21 | 10 to 100 | CCCCCn1c(-c2ccc(C(=O)NCc3ccc(N4CCOCC4)cc3)cc2)cc(=O)n2cc(-c3ccc(Cl)cc3)nc12 [Compound 509]
22 | < 10 | CCCCCn1c(N2CCC[C@H]2C(=O)NC(C)(C)C(=O)OC)cc(=O)n2cc(-c3ccc(Cl)cc3)nc12 [Compound 689]
23 | < 10 | CCCCCn1c(-c2cnc(C(=O)NCCC(=O)OC)nc2)cc(=O)n2cc(-c3ccc(Cl)cc3)nc12 [Compound 534]
24 | 10 to 100 | CCCCCn1c(O[C@H]2CCN(C(=O)OC(C)(C)C)C2)cc(=O)n2cc(-c3ccc(Cl)cc3)nc12 [Compound 549]
25 | < 10 | CCCCCn1c(N2CCC[C@H]2C(=O)N[C@@H](C)C(=O)O)cc(=O)n2cc(-c3ccc(Cl)cc3)nc12 [Compound 675]
26 | 100 to 1000 | CCCCCn1c(NCC(=O)NCC(=O)O)cc(=O)n2cc(-c3ccc(Cl)cc3)nc12 [Compound 603]
27 | 10 to 100 | CCCCCn1c(-c2ccc(C(=O)NC3(CO)CCC3)cc2)cc(=O)n2cc(-c3ccc(Cl)cc3)nc12 [Compound 497]
28 | < 10 | CCCCCn1c(N2CCC[C@H]2C(=O)N2CCC[C@H](C(=O)O)C2)cc(=O)n2cc(-c3ccc(Cl)cc3)nc12 [Compound 677]
29 | > 1000 | CCCCCn1c(N2C[C@H](O)C[C@H]2C(=O)O)cc(=O)n2cc(-c3ccc(Cl)cc3)nc12 [Compound 589]
30 | 10 to 100 | CCCCCn1c(-c2ccc(S(=O)(=O)NCCO)cc2)cc(=O)n2cc(-c3ccc(Cl)cc3)nc12 [Compound 412]
31 | < 10 | CCCCCn1c(N2CCC[C@H]2C(=O)N[C@H](C(=O)O)C(C)C)cc(=O)n2cc(-c3ccc(Cl)cc3)nc12 [Compound 723]
32 | 100 to 1000 | CCCCCn1c(NC(C)=O)cc(=O)n2cc(-c3ccc(Cl)cc3)nc12 [Compound 333]
33 | < 10 | CCCCCn1c(N2CCC[C@H]2C(=O)N[C@H](C(=O)O)C(C)(C)C)cc(=O)n2cc(-c3ccc(Cl)cc3)nc12 [Compound 722]
34 | < 10 | CC(C)(C)[C@H](NC(=O)[C@@H]1C[C@@H](O)CN1c1cc(=O)n2cc(-c3ccc(Cl)cc3)nc2n1Cc1ccccc1)C(=O)O [Compound 752]
35 | < 10 | CCCCCn1c(N2CCC[C@H]2C(=O)NC(C)(C)C(C)C(=O)O)cc(=O)n2cc(-c3ccc(Cl)cc3)nc12 (some centres unmarked) [Compound 676]
36 | 10 to 100 | CCCCCn1c(OCC2(F)COC2)cc(=O)n2cc(-c3ccc(Cl)cc3)nc12 [Compound 718]
37 | 100 to 1000 | CCCCCn1c(N2CCC[C@H]2C(=O)N[C@@H](CO)C(=O)OC)cc(=O)n2cc(-c3ccc(Cl)cc3)nc12 [Compound 687]
38 | 100 to 1000 | CCCCCn1c(N2CCC[C@H]2C(=O)NCCn2ccnc2)cc(=O)n2cc(-c3ccc(Cl)cc3)nc12 [Compound 342]
39 | 10 to 100 | CCCCCn1c(-c2ccc(S(=O)(=O)N3CCOCC3)cc2)cc(=O)n2cc(-c3ccc(Cl)cc3)nc12 [Compound 430]
40 | 10 to 100 | CCCCCn1c(N(C)Cc2ccccc2)cc(=O)n2cc(-c3ccc(Cl)cc3)nc12 [Compound 219]

Row | IC50 [nM] | Compound
41 | 10 to 100 | Cc1cc(=O)n2cc(-c3ccc(Cl)cc3)nc2n1CCCCCC#N [Compound 98]
42 | 10 to 100 | CCCCCn1c(N2CCC[C@H]2C(=O)NC(CO)C(=O)O)cc(=O)n2cc(-c3ccc(Cl)cc3)nc12 (some centres unmarked) [Compound 672]
43 | 10 to 100 | CCCCCn1c(-c2ccc(C(=O)NCCC)cc2)cc(=O)n2cc(-c3ccc(Cl)cc3)nc12 [Compound 478]
44 | 10 to 100 | CCCCCn1c(OC[C@H]2CCCN2C(=O)OC(C)(C)C)cc(=O)n2cc(-c3ccc(Cl)cc3)nc12 [Compound 555]
45 | 100 to 1000 | CCCCCn1c(-c2ccc(C(=O)N3CCC4(CN(C(=O)OC(C)(C)C)C4)C3)cc2)cc(=O)n2cc(-c3ccc(Cl)cc3)nc12 [Compound 491]
46 | < 10 | CCCCCn1c(N2C[C@@H](O)C[C@H]2C(=O)NC(C)(C)CC(=O)O)cc(=O)n2cc(-c3ccc(Cl)cc3)nc12 [Compound 586]
47 | < 10 | C[C@H](NC(=O)[C@@H]1C[C@@H](O)CN1c1cc(=O)n2cc(-c3ccc(Cl)cc3)nc2n1Cc1ccccc1)C(=O)O [Compound 754]
48 | 10 to 100 | CCCCCn1c(-c2ccc(C(=O)N3CCN(S(C)(=O)=O)CC3)cc2)cc(=O)n2cc(-c3ccc(Cl)cc3)nc12 [Compound 498]
49 | 10 to 100 | CCCCCn1c(-c2ccc(NS(=O)(=O)N(C)C)cc2)cc(=O)n2cc(-c3ccc(Cl)cc3)nc12 [Compound 438]
50 | 10 to 100 | CCCCCn1c(N2CCC3CN(C(=O)OC(C)(C)C)CC32)cc(=O)n2cc(-c3ccc(Cl)cc3)nc12 (centres unmarked) [Compound 312]
51 | 100 to 1000 | CCCCCn1c(N2CCC(C3CNC3)C2)cc(=O)n2cc(-c3ccc(Cl)cc3)nc12 (centres unmarked) [Compound 332]
52 | < 10 | CCCCCn1c(-c2ccc(C(=O)NC(CO)CO)cc2)cc(=O)n2cc(-c3ccc(Cl)cc3)nc12 [Compound 482]
53 | 100 to 1000 | CCCCCn1c(N2CCC[C@@H]2CC(=O)O)cc(=O)n2cc(-c3ccc(Cl)cc3)nc12 [Compound 605]
54 | 10 to 100 | CCCCCn1c(N2CCC[C@H]2C(=O)N[C@H](Cc2ccccc2)C(=O)O)cc(=O)n2cc(-c3ccc(Cl)cc3)nc12 [Compound 725]
55 | 10 to 100 | CCCCCn1c(-c2ccc(C(N)=O)cc2)cc(=O)n2cc(-c3ccc(Cl)cc3)nc12 [Compound 375]
56 | 10 to 100 | CCn1c(N2CCC[C@H]2C(=O)N[C@@H](C)C(=O)O)cc(=O)n2cc(-c3ccc(Cl)cc3)nc12 [Compound 760]
57 | < 10 | CCCCCn1c(N2C[C@@H](O)C[C@H]2C(=O)N[C@@H](C)C(=O)O)cc(=O)n2cc(-c3ccc(Cl)cc3)nc12 [Compound 779]
58 | 100 to 1000 | CCCCCn1c(OCC2(C)COC2)cc(=O)n2cc(-c3ccc(Cl)cc3)nc12 [Compound 719]

same assay, conditions: Assay Method C, human autotaxin, 18:0 Lyso PC substrate; read-out: Inhibitory Activity

Row | IC50 [nM] | Compound
59 | 10 to 100 | C#CCNC(=O)C1CCCCN1c1cc(=O)n2cc(-c3ccc(Cl)cc3)nc2n1CCCCC (centres unmarked) [Compound 807]
60 | < 10 | CCCCCn1c(N2CCC[C@H]2C(=O)NCc2c[nH]nn2)cc(=O)n2cc(-c3ccc(Cl)cc3)nc12 [Compound 790]
61 | > 1000 | CCCCCn1c(N2CCCC[C@@H]2C)cc(=O)n2cc(-c3ccc(Cl)cc3)nc12 [Compound 808]
62 | 100 to 1000 | CCCCCn1c(N2CC3CC3C2)cc(=O)n2cc(-c3ccc(Cl)cc3)nc12 (centres unmarked) [Compound 810]
63 | < 10 | CCCCCn1c(-c2ccc(C(=O)NCCNCCO)cc2)cc(=O)n2cc(-c3ccc(Cl)cc3)nc12 [Compound 817]
64 | > 1000 | CCCCCn1c(N2CCCCC2c2ccccc2)cc(=O)n2cc(-c3ccc(Cl)cc3)nc12 (centres unmarked) [Compound 803]
65 | > 1000 | O=C(Cc1cn(CCCC(F)(F)F)c2nc(-c3ccc(Cl)cc3)cn2c1=O)N1CCC(O)CC1 [Compound 838]
66 | > 1000 | CCOC(=O)Cc1cn(CCCC(F)(F)F)c2nc(-c3ccc(Cl)cc3)cn2c1=O [Compound 828]
67 | 100 to 1000 | CCCCCn1c(N2CCC[C@H]2C(=O)NCC(O)C(F)(F)F)cc(=O)n2cc(-c3ccc(Cl)cc3)nc12 (some centres unmarked) [Compound 785]
68 | 100 to 1000 | O=C(Cc1cn(CCCC(F)(F)F)c2nc(-c3ccc(Cl)cc3)cn2c1=O)N1CCOCC1 [Compound 865]
